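Step 1: Grow cells in 96-well plates. Step 2: Expose to compound for 48 hours at 5 concentrations. Step 3: Interpolate endpoints linearly; if unreached, use highest concentration. The concentration for 50% growth inhibition is given as GI50.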 Calls of active or inactive are those of the source. Rule as the data show it: active = GI50 up to about 1.1 µM and inactive = higher.
What was measured:
Experiment in all cases: DTP human tumour cell line panel, 48 h
[1] = test system: 786-0
[2] = test system: A498
[3] = test system: A549
[4] = test system: ACHN
[5] = test system: BT-549
[6] = test system: CAKI-1
[7] = test system: CCRF-CEM
[8] = test system: COLO 205
[9] = test system: DU-145
[10] = test system: EKVX
[11] = test system: HCC 2998
[12] = test system: HCT-116
[13] = test system: HCT-15
[14] = test system: HL-60
[15] = test system: HOP-62
[16] = test system: HOP-92
[17] = test system: HT-29
[18] = test system: Hs-578T
[19] = test system: IGROV-1
[20] = test system: K562
[21] = test system: KM12
[22] = test system: M14
[23] = test system: MCF7
[24] = test system: MDA-MB-231
[25] = test system: MDA-MB-435
[26] = test system: MDA-N
[27] = test system: MOLT-4
[28] = test system: Malme-3M
[29] = test system: NCI-H226
[30] = test system: NCI-H23
[31] = test system: NCI-H460
[32] = test system: NCI-H522
[33] = test system: NCI/ADR-RES
[34] = test system: OVCAR-3
[35] = test system: OVCAR-4
[36] = test system: OVCAR-5
[37] = test system: OVCAR-8
[38] = test system: PC-3
[39] = test system: RPMI-8226
[40] = test system: RXF 393
[41] = test system: SF-268
[42] = test system: SF-295
[43] = test system: SF-539
[44] = test system: SK-MEL-28
[45] = test system: SK-MEL-2
[46] = test system: SK-MEL-5
[47] = test system: SK-OV-3
[48] = test system: SN12C
[49] = test system: SNB-19
[50] = test system: SR
[51] = test system: T47D
[52] = test system: TK-10
[53] = test system: U-251
[54] = test system: UACC-257
[55] = test system: UACC-62
[56] = test system: UO-31
[57] = test system: SNB-75
[58] = test system: SW-620

Which GI50 [1] does the source give for `Cc1ccc(-c2cc(N)n(-c3nc4c(c(=O)n(C)c(=O)n4C)n3C)n2)cc1` here?
Its GI50 is 42.2 µM (inactive).

And the GI50 [2]?
The GI50 was > 100 µM (inactive).

And the GI50 [3]?
Its GI50 is > 100 µM (inactive).

And the GI50 [4]?
The GI50 was > 100 µM (inactive).

And the GI50 [5]?
Its GI50 is > 100 µM (inactive).

What about the GI50 [6] of the same compound?
Its GI50 is > 100 µM (inactive).

What about the GI50 [7] of the same compound?
The GI50 was > 100 µM (inactive).

And the GI50 [8]?
The GI50 was > 100 µM (inactive).

And the GI50 [9]?
The GI50 was > 100 µM (inactive).

What about the GI50 [10] of the same compound?
The GI50 was 62.2 µM (inactive).

What about the GI50 [11] of the same compound?
Its GI50 is > 100 µM (inactive).

What about the GI50 [12] of the same compound?
Its GI50 is > 100 µM (inactive).

And the GI50 [13]?
The GI50 was > 100 µM.

And the GI50 [14]?
Its GI50 is > 100 µM (inactive).

What about the GI50 [15] of the same compound?
Its GI50 is 21.7 µM (inactive).

And the GI50 [16]?
The GI50 was > 100 µM (inactive).

What about the GI50 [17] of the same compound?
The GI50 was > 100 µM (inactive).

And the GI50 [18]?
Its GI50 is 60.1 µM (inactive).

What about the GI50 [19] of the same compound?
Its GI50 is > 100 µM (inactive).

What about the GI50 [20] of the same compound?
Its GI50 is > 100 µM (inactive).

And the GI50 [21]?
The GI50 was > 100 µM (inactive).

What about the GI50 [22] of the same compound?
The GI50 was > 100 µM (inactive).

What about the GI50 [23] of the same compound?
Its GI50 is > 100 µM (inactive).

And the GI50 [24]?
Its GI50 is > 100 µM (inactive).

What about the GI50 [25] of the same compound?
Its GI50 is > 100 µM (inactive).

What about the GI50 [26] of the same compound?
The GI50 was > 100 µM (inactive).

And the GI50 [27]?
Its GI50 is > 100 µM (inactive).

What about the GI50 [28] of the same compound?
Its GI50 is 45.6 µM (inactive).

What about the GI50 [29] of the same compound?
Its GI50 is 86.1 µM (inactive).

What about the GI50 [30] of the same compound?
The GI50 was 67 µM (inactive).

What about the GI50 [31] of the same compound?
The GI50 was > 100 µM (inactive).

What about the GI50 [32] of the same compound?
The GI50 was 86.5 µM (inactive).

And the GI50 [33]?
Its GI50 is 95.1 µM (inactive).

And the GI50 [34]?
The GI50 was > 100 µM (inactive).

What about the GI50 [35] of the same compound?
The GI50 was 42.5 µM (inactive).

And the GI50 [36]?
The GI50 was > 100 µM (inactive).

What about the GI50 [37] of the same compound?
Its GI50 is > 100 µM (inactive).

What about the GI50 [38] of the same compound?
Its GI50 is > 100 µM (inactive).

And the GI50 [39]?
The GI50 was > 100 µM (inactive).

And the GI50 [40]?
The GI50 was > 100 µM (inactive).

What about the GI50 [41] of the same compound?
The GI50 was 43.7 µM (inactive).

And the GI50 [42]?
Its GI50 is 62.7 µM (inactive).

What about the GI50 [43] of the same compound?
Its GI50 is 45.8 µM (inactive).

And the GI50 [44]?
Its GI50 is 23.1 µM (inactive).

What about the GI50 [45] of the same compound?
The GI50 was > 100 µM (inactive).

And the GI50 [46]?
Its GI50 is 32.4 µM (inactive).

What about the GI50 [47] of the same compound?
The GI50 was 41 µM (inactive).

What about the GI50 [48] of the same compound?
Its GI50 is > 100 µM (inactive).

And the GI50 [49]?
The GI50 was 94.4 µM (inactive).

What about the GI50 [50] of the same compound?
The GI50 was > 100 µM (inactive).

What about the GI50 [51] of the same compound?
Its GI50 is > 100 µM (inactive).

And the GI50 [52]?
The GI50 was > 100 µM (inactive).

And the GI50 [53]?
Its GI50 is > 100 µM (inactive).

What about the GI50 [54] of the same compound?
The GI50 was > 100 µM (inactive).

What about the GI50 [55] of the same compound?
The GI50 was > 100 µM (inactive).

What about the GI50 [56] of the same compound?
Its GI50 is > 100 µM (inactive).

Which GI50 [1] does the source give for `O=C(CC(C(=O)c1cccs1)c1ccsc1)c1cccs1` (stereo unspecified) here?
Its GI50 is > 100 µM (inactive).

And the GI50 [2]?
Its GI50 is 38.6 µM (inactive).

And the GI50 [3]?
The GI50 was 91 µM (inactive).

And the GI50 [4]?
The GI50 was > 100 µM (inactive).

What about the GI50 [5] of the same compound?
The GI50 was 81.8 µM (inactive).

And the GI50 [6]?
Its GI50 is > 100 µM (inactive).

What about the GI50 [7] of the same compound?
The GI50 was 37.8 µM (inactive).

What about the GI50 [8] of the same compound?
Its GI50 is 75.2 µM (inactive).

And the GI50 [9]?
Its GI50 is > 100 µM (inactive).

And the GI50 [10]?
The GI50 was 28.8 µM (inactive).

And the GI50 [11]?
The GI50 was 83.9 µM (inactive).

And the GI50 [12]?
The GI50 was 29.9 µM (inactive).

And the GI50 [13]?
The GI50 was 71.3 µM.

And the GI50 [15]?
The GI50 was > 100 µM (inactive).

And the GI50 [16]?
The GI50 was 94.2 µM (inactive).

What about the GI50 [17] of the same compound?
Its GI50 is > 100 µM (inactive).

What about the GI50 [18] of the same compound?
The GI50 was > 100 µM (inactive).

What about the GI50 [19] of the same compound?
The GI50 was > 100 µM (inactive).

What about the GI50 [20] of the same compound?
Its GI50 is 37.8 µM (inactive).

And the GI50 [21]?
The GI50 was 71.3 µM (inactive).

And the GI50 [22]?
Its GI50 is > 10 µM (inactive).

And the GI50 [23]?
The GI50 was 52.2 µM (inactive).

What about the GI50 [24] of the same compound?
The GI50 was > 100 µM (inactive).

What about the GI50 [25] of the same compound?
Its GI50 is 29.1 µM (inactive).

What about the GI50 [26] of the same compound?
Its GI50 is 25.8 µM (inactive).

And the GI50 [27]?
Its GI50 is 46.7 µM (inactive).

And the GI50 [28]?
Its GI50 is > 100 µM (inactive).

And the GI50 [29]?
Its GI50 is > 100 µM (inactive).

What about the GI50 [30] of the same compound?
The GI50 was > 100 µM (inactive).

What about the GI50 [31] of the same compound?
The GI50 was 43.9 µM (inactive).

What about the GI50 [32] of the same compound?
Its GI50 is 54.2 µM (inactive).

What about the GI50 [33] of the same compound?
Its GI50 is 31.9 µM (inactive).

And the GI50 [34]?
The GI50 was 45 µM (inactive).

What about the GI50 [35] of the same compound?
The GI50 was 79.8 µM (inactive).

What about the GI50 [36] of the same compound?
The GI50 was > 100 µM (inactive).

What about the GI50 [37] of the same compound?
Its GI50 is > 100 µM (inactive).

What about the GI50 [38] of the same compound?
The GI50 was 45.2 µM (inactive).

And the GI50 [40]?
The GI50 was 53.6 µM (inactive).

What about the GI50 [41] of the same compound?
The GI50 was > 100 µM (inactive).

What about the GI50 [42] of the same compound?
Its GI50 is 42 µM (inactive).

What about the GI50 [43] of the same compound?
Its GI50 is > 100 µM (inactive).

And the GI50 [44]?
Its GI50 is 81.5 µM (inactive).

What about the GI50 [46] of the same compound?
The GI50 was 47.3 µM (inactive).

And the GI50 [47]?
Its GI50 is 61.9 µM (inactive).

And the GI50 [48]?
The GI50 was > 100 µM (inactive).

And the GI50 [49]?
The GI50 was > 100 µM (inactive).

And the GI50 [57]?
Its GI50 is 12.8 µM (inactive).

And the GI50 [50]?
The GI50 was 36 µM (inactive).

And the GI50 [58]?
Its GI50 is 81.7 µM (inactive).

What about the GI50 [51] of the same compound?
Its GI50 is 26.3 µM (inactive).

And the GI50 [52]?
Its GI50 is > 100 µM (inactive).

What about the GI50 [53] of the same compound?
The GI50 was > 100 µM (inactive).

And the GI50 [54]?
The GI50 was > 100 µM (inactive).

And the GI50 [55]?
The GI50 was 62.1 µM (inactive).

What about the GI50 [56] of the same compound?
Its GI50 is 51.3 µM (inactive).
